60 compounds from US4393225A, “AI-77 Compounds and pharmaceutically acceptable salts thereof” (Asahi Kasei Kogyo Kabushiki Kaisha, priority 1979, dated 1983) can be followed below.

The first experiment has as its system ulcer. In words: Anti-ulcer test (restraint and water immersion ulcer in rats, i.p.). The experiment is classed as in vivo, Male Wistar rats. As to conditions: Rattus norvegicus, ip, read-out: % Inhibition of Ulcer. In outline:
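Compound given intraperitoneally in saline to 24 h-fasted male Wistar rats about 150 g, followed after one hour by 6 h restraint with water immersion at 21 °C. Gastric lesions graded 0, 0.5, 1, 2 or 3 on microscopic inspection and converted to percent ulcer inhibition.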
Take `COC(C(=O)NC(CC(C)C)C1Cc2cccc(O)c2C(=O)O1)C(O)C(N)CC(N)=O` (stereo not drawn) [VII-8-1]: the inhibition in vivo at 25 mg/kg is 89%. Turning to `CCNC1CC(=O)OC1C(OC(C)=O)C(=O)NC(CC(C)C)C1Cc2cccc(OC(C)=O)c2C(=O)O1` (stereo not drawn) [IIIa-20-1], the inhibition in vivo at 50 mg/kg came to 56%. On the same count and under the same terms, the figure for `CC(C)CC(NC(=O)C(OC(=O)C(Cl)(Cl)Cl)C1OC(=O)CC1N)C1Cc2cccc(OC(=O)C(Cl)(Cl)Cl)c2C(=O)O1` (stereo not drawn) [IIIa-11-4] is 56%.

Still in this experiment, the particulars now being: Rattus norvegicus, ip; 25 mg/kg i.p.; read-out: % Inhibition of Ulcer.
As for `CCNC(CC(N)=O)C(O)C(OC)C(=O)NC(CC(C)C)C1Cc2cccc(O)c2C(=O)O1` (stereo not drawn) [VII-17-3], the inhibition in vivo at 25 mg/kg came to 89%.

As to `CNC(CC(N)=O)C(O)C(O)C(=O)NC(CC(C)C)C1Cc2cccc(OC(C)=O)c2C(=O)O1` (stereo not drawn) [VII-22-1], the inhibition in vivo at 25 mg/kg turned out to be 78%.

`CCCNC(CC(N)=O)C(O)C(O)C(=O)NC(CC(C)C)C1Cc2cccc(O)c2C(=O)O1` (stereo not drawn) [VII-10-1]: the inhibition in vivo at 25 mg/kg is 94%. The same measure, in the same setting: the figure for `CCCCOc1cccc2c1C(=O)OC(C(CC(C)C)NC(=O)C(OCCCC)C(O)C(N)CC(N)=O)C2` (stereo not drawn) [VII-7-2] is 72%; for `CC(C)=CCCC(C)=CCNC(=O)CC(N)C(O)C(O)C(=O)NC(CC(C)C)C1Cc2cccc(O)c2C(=O)O1` (stereo not drawn) [VII-1-30] it is 83%; for `CCOc1cccc2c1C(=O)OC(C(CC(C)C)NC(=O)C(OC(=O)CC)C(O)C(N)CC(N)=O)C2` (stereo not drawn) [VII-6-3] it is 66%. The same measure, in the same setting: the figure for `CCNC(CC(N)=O)C(O)C(OC(=O)CC)C(=O)NC(CC(C)C)C1Cc2cccc(OC(=O)C(C)C)c2C(=O)O1` (stereo not drawn) [VII-12-1] is 56%; for `CC(C)CCNC(=O)CC(N)C(O)C(O)C(=O)NC(CC(C)C)C1Cc2cccc(O)c2C(=O)O1` (stereo not drawn) [VII-1-5] it is 100%. For `CCOc1cccc2c1C(=O)OC(C(CC(C)C)NC(=O)C(O)C(O)C(N)CC(N)=O)C2` (stereo not drawn) [VII-5-2], the inhibition in vivo at 25 mg/kg amounted to 78%. Consider `CC(=O)N1CCC(CNC(=O)CC(N)C(O)C(O)C(=O)NC(CC(C)C)C2Cc3cccc(O)c3C(=O)O2)CC1` (stereo not drawn) [VII-1-17], for which the inhibition in vivo at 25 mg/kg came out at 83%.

On to `CCCC(=O)Oc1cccc2c1C(=O)OC(C(CC(C)C)NC(=O)C(OC(C)=O)C(O)C(N)CC(N)=O)C2` (stereo not drawn) [VII-3-2], for which the inhibition in vivo at 25 mg/kg came out at 78%.

The same experiment, now with this note: Rattus norvegicus, ip; 50 mg/kg i.p.; read-out: % Inhibition of Ulcer.
Turning to `CCNC1CC(=O)OC1C(OC(C)=O)C(=O)NC(CC(C)C)C1Cc2cccc(O)c2C(=O)O1` (stereo not drawn) [IIIa-19-1], the inhibition in vivo at 50 mg/kg was found to be 66%. `CCOc1cccc2c1C(=O)OC(C(CC(C)C)NC(=O)C(O)C1OC(=O)CC1NC(=O)c1ccc(OC)cc1)C2` (stereo not drawn) [IIIa-5-39]: the inhibition in vivo at 50 mg/kg was determined as 44%.

Turning to `CCOc1cccc2c1C(=O)OC(C(CC(C)C)NC(=O)C(O)C1OC(=O)CC1NC(=O)C1CC3C=CC1C3)C2` (stereo not drawn) [IIIa-5-69], the inhibition in vivo at 50 mg/kg was 33%. As for `CCCCCCCCCCCCCCCCCCNC1CC(=O)OC1C(O)C(=O)NC(CC(C)C)C1Cc2cccc(OCCCCC)c2C(=O)O1` (stereo not drawn) [IIIa-22-6], the inhibition in vivo at 50 mg/kg was found to be 72%. Take `CCN1CCCC(N=C(NC(CC(C)C)C2Cc3cccc(O)c3C(=O)O2)C(O)C(O)C(N)CC(=O)O)C1` (stereo not drawn) [Vb-1-43]: the inhibition in vivo at 50 mg/kg was 83%. In the case of `CC(C)CC(NC(=O)C(O)C1OC(=O)CC1NC(=O)C1CCCCCCC1)C1Cc2cccc(O)c2C(=O)O1` (stereo not drawn) [IIIa-1-62], the inhibition in vivo at 50 mg/kg stood at 66%.

As to `CCOc1cccc2c1C(=O)OC(C(CC(C)C)NC(=O)C(OC)C1OC(=O)CC1NC(C)=O)C2` (stereo not drawn) [IIIa-7-1], the inhibition in vivo at 50 mg/kg is 33%. Still for that read-out and setting: the figure for `CCOc1cccc2c1C(=O)OC(C(CC(C)C)NC(=O)C(OC(C)=O)C1OC(=O)CC1N)C2` (stereo not drawn) [IIIa-14-1] is 56%. With `COc1ccc2ncc(C(=O)NC3CC(=O)OC3C(O)C(=O)NC(CC(C)C)C3Cc4cccc(O)c4C(=O)O3)cc2c1` (stereo not drawn) [IIIa-1-30], the inhibition in vivo at 50 mg/kg turned out to be 56%.

For the compound `CCCCCCCCC=CCCCCCCCC(=O)NC1CC(=O)OC1C(OC(C)=O)C(=O)NC(CC(C)C)C1Cc2cccc(O)c2C(=O)O1` (stereo not drawn) [IIIa-2-5], the inhibition in vivo at 50 mg/kg was found to be 33%. On the same count and under the same terms, the figure for `CCCCCSCC(=O)NC1CC(=O)OC1C(O)C(=O)NC(CC(C)C)C1Cc2cccc(OCC)c2C(=O)O1` (stereo not drawn) [IIIa-5-44] is 33%; for `CC(=O)OC1CCC(C(=O)NC2CC(=O)OC2C(O)C(=O)NC(CC(C)C)C2Cc3cccc(O)c3C(=O)O2)CC1` (stereo not drawn) [IIIa-1-74] it is 66%; for `CCOc1cccc2c1C(=O)OC(C(CC(C)C)NC(=O)C(O)C1OC(=O)CC1NC(=O)C1CCC(C(=O)OC)CC1)C2` (stereo not drawn) [IIIa-5-66] it is 44%.

Consider `CC(C)CC(NC(=O)C(O)C1OC(=O)CC1N)C1Cc2cccc(OC3CC3)c2C(=O)O1` (stereo not drawn) [IIIa-13-10], for which the inhibition in vivo at 50 mg/kg is 94%. Still for that read-out and setting: for `COC(=O)C1CCC(C(=O)NC2CC(=O)OC2C(O)C(=O)NC(CC(C)C)C2Cc3cccc(O)c3C(=O)O2)CC1` (stereo not drawn) [IIIa-1-68] the value was 66%; for `CCOc1cccc2c1C(=O)OC(C(CC(C)C)NC(=O)C(O)C1OC(=O)CC1NC(=O)CC1CCCCO1)C2` (stereo not drawn) [IIIa-5-24], 44%. Turning to `COC(C)CC(=O)NC1CC(=O)OC1C(O)C(=O)NC(CC(C)C)C1Cc2cccc(OC(C)=O)c2C(=O)O1` (stereo not drawn) [IIIa-4-6], the inhibition in vivo at 50 mg/kg came out at 44%. Turning to `CC(C)CC(=O)Oc1cccc2c1C(=O)OC(C(CC(C)C)NC(=O)C(O)C1C=CC(=O)O1)C2` (stereo not drawn) [IVa-3-11], the inhibition in vivo at 50 mg/kg came to 44%.

Consider `C/C=C/C(=O)NC1CC(=O)OC1C(O)C(=O)NC(CC(C)C)C1Cc2cccc(O)c2C(=O)O1` (stereo not drawn) [IIIa-1-54], for which the inhibition in vivo at 50 mg/kg was determined as 66%. As to `CC(C)CC(NC(=O)C(O)C1OC(=O)CC1NC(=O)C(C)C)C1Cc2cccc(O)c2C(=O)O1` (stereo not drawn) [IIIa-1-4], the inhibition in vivo at 50 mg/kg worked out at 66%. Still for that read-out and setting: for `CNC1CC(=O)OC1C(OC(C)=O)C(=O)NC(CC(C)C)C1Cc2cccc(OC(C)=O)c2C(=O)O1` (stereo not drawn) [IIIa-29-1] the value was 56%; for `CCOc1cccc2c1C(=O)OC(C(CC(C)C)NC(=O)C(O)C1OC(=O)CC1NC(=O)c1nnnn1C)C2` (stereo not drawn) [IIIa-5-27], 44%; for `CC(C)CC(NC(=O)C(O)C1C=CC(=O)O1)C1Cc2cccc(OCC3CCCO3)c2C(=O)O1` (stereo not drawn) [IVa-4-14], 33%. Same read-out and setting: the figure for `CCCCNC1CC(=O)OC1C(O)C(=O)NC(CC(C)C)C1Cc2cccc(OCCCBr)c2C(=O)O1` (stereo not drawn) [IIIa-22-92] is 94%. Still for that read-out and setting: for `CCCCCCCCCCCCCCCCCC(=O)NC1CC(=O)OC1C(O)C(=O)NC(CC(C)C)C1Cc2cccc(OC(C)=O)c2C(=O)O1` (stereo not drawn) [IIIa-4-3] the value was 33%; for `CCOc1cccc2c1C(=O)OC(C(CC(C)C)NC(=O)C(O)C1OC(=O)CC1NC(=O)C1CCC=CO1)C2` (stereo not drawn) [IIIa-5-58], 44%. Regarding `C#CCNC1CC(=O)OC1C(O)C(=O)NC(CC(C)C)C1Cc2cccc(OCC)c2C(=O)O1` (stereo not drawn) [IIIa-22-47], the inhibition in vivo at 50 mg/kg amounted to 94%. The same measure, in the same setting: for `CCOc1cccc2c1C(=O)OC(C(CC(C)C)NC(=N)C(OC(=O)C(C)C)C(O)C(N)CC(=O)O)C2` (stereo not drawn) [Vb-6-2] the value was 66%; for `CC(C)CC(NC(=O)C(O)C1OC(=O)CC1NC(=O)c1ccc(C(C)C)cc1)C1Cc2cccc(O)c2C(=O)O1` (stereo not drawn) [IIIa-1-69], 66%. On the same count and under the same terms, the figure for `CCOc1cccc2c1C(=O)OC(C(CC(C)C)NC(=O)C(O)C1OC(=O)CC1NC(=O)c1ccc(C)cc1)C2` (stereo not drawn) [IIIa-5-37] is 44%; for `CCOc1cccc2c1C(=O)OC(C(CC(C)C)NC(=O)C(OC(C)=O)C1OC(=O)CC1NC)C2` (stereo not drawn) [IIIa-32-1] it is 56%; for `CCCC=Cc1ccc(COc2cccc3c2C(=O)OC(C(CC(C)C)NC(=O)C(O)C2OC(=O)CC2NC(=O)CCC)C3)cc1` (stereo not drawn) [IIIa-5-120] it is 33%. The same measure, in the same setting: for `CCNC(CC(=O)O)C(O)C(OC(C)=O)C(=N)NC(CC(C)C)C1Cc2cccc(O)c2C(=O)O1` (stereo not drawn) [Vb-11-1] the value was 78%. With `CCCC(=O)Oc1cccc2c1C(=O)OC(C(CC(C)C)NC(=N)C(OCC)C(O)C(N)CC(=O)O)C2` (stereo not drawn) [Vb-9-2], the inhibition in vivo at 50 mg/kg amounted to 66%. On the same count and under the same terms, the figure for `CC(C)CCOc1cccc2c1C(=O)OC(C(CC(C)C)NC(=O)C(O)C1C=CC(=O)O1)C2` (stereo not drawn) [IVa-4-4] is 44%.

Consider `CNC(=O)C=CC(O)C(O)C(=O)NC(CC(C)C)C1Cc2cccc(O)c2C(=O)O1` (stereo not drawn) [VIII-1-1], for which the inhibition in vivo at 50 mg/kg came out at 56%.

In the case of `CCCCOc1cccc2c1C(=O)OC(C(CC(C)C)NC(=O)C(O)C1C=CC(=O)O1)C2` (stereo not drawn) [IVa-4-3], the inhibition in vivo at 50 mg/kg amounted to 44%. On to `CCCCCCCC/C=C\CCCCCCCC(=O)NC1CC(=O)OC1C(O)C(=O)NC(CC(C)C)C1Cc2cccc(O)c2C(=O)O1` (stereo not drawn) [IIIa-1-13], for which the inhibition in vivo at 50 mg/kg was 44%. On the same count and under the same terms, the figure for `CCOc1cccc2c1C(=O)OC(C(CC(C)C)NC(=O)C(O)C1OC(=O)CC1NC(=O)Cc1cccnc1)C2` (stereo not drawn) [IIIa-5-57] is 33%. For the compound `COC(C(=O)NC(CC(C)C)C1Cc2cccc(O)c2C(=O)O1)C1OC(=O)CC1N` (stereo not drawn) [IIIa-16-1], the inhibition in vivo at 50 mg/kg came out at 72%. In the case of `CC(C)CC(NC(=O)C(O)C1C=CC(=O)O1)C1Cc2cccc(OC(=O)C(C)C)c2C(=O)O1` (stereo not drawn) [IVa-3-10], the inhibition in vivo at 50 mg/kg stood at 44%. With `COC1CCC(C(=O)NC2CC(=O)OC2C(O)C(=O)NC(CC(C)C)C2Cc3cccc(O)c3C(=O)O2)CC1` (stereo not drawn) [IIIa-1-73], the inhibition in vivo at 50 mg/kg worked out at 66%.

For the compound `CCCCCCCCCCCCOc1cccc2c1C(=O)OC(C(CC(C)C)NC(=O)C(O)C1OC(=O)CC1NCC)C2` (stereo not drawn) [IIIa-22-9], the inhibition in vivo at 50 mg/kg is 83%.

For the compound `CNC1CC(=O)OC1C(OC)C(=O)NC(CC(C)C)C1Cc2cccc(O)c2C(=O)O1` (stereo not drawn) [IIIa-34-1], the inhibition in vivo at 50 mg/kg is 66%. On the same count and under the same terms, the figure for `CC(C)CC(NC(=O)C(O)C1OC(=O)CC1N)C1Cc2cccc(OCCC3CCCCO3)c2C(=O)O1` (stereo not drawn) [IIIa-13-15] is 94%.

Consider `CCCCCC(=O)OC(C)CC(=O)NC1CC(=O)OC1C(O)C(=O)NC(CC(C)C)C1Cc2cccc(OCC)c2C(=O)O1` (stereo not drawn) [IIIa-5-48], for which the inhibition in vivo at 50 mg/kg turned out to be 33%.
